According to patent publication US10308916B2, “Omega-transaminase mutants with activity improvements toward ketones and methods for producing optically pure amines” (Industry-Academic Cooperation Foundation, Yonsei University, priority 2015, dated 2019):
“And” between values parts separate entries of the source, which are not always exact repeats. Equal values may be shown once. Read-outs that look alike come from different tables or passages of the source.

Legend:
Format in all cases: biochemical
[1] = system: OATA W58L
[2] = system: OATA W58A
[3] = system: OATA W58L; remark: listed apart in the source
[4] = system: OATA L57A/W58A
[5] = system: OATA L57A/W58A/V154A
[6] = system: OATA W58A; remark: listed apart in the source
[7] = system: OATA W58L; remark: listed apart in the source
[8] = system: OATA L57Q/W58N/I261L
[9] = system: OATA L57C/W58L/I261A
[10] = system: OATA W58D/I261A
[11] = system: OATA W58A; conditions: pH 7
[12] = system: OATA W58V; conditions: pH 7
[13] = system: OATA W58I; conditions: pH 7
[14] = system: OATA W58L; conditions: pH 7
[15] = system: OATA W58M; conditions: pH 7
[16] = system: OATA L57A
[17] = system: OATA W58A; remark: listed apart in the source
[18] = system: OATA L57A/W58A; remark: listed apart in the source
[19] = system: OATA L57A/W58A/V154A; remark: listed apart in the source
[20] = system: OATA W58D/I261A; remark: listed apart in the source
[21] = system: OATA L57Q/W58N/I261L; remark: listed apart in the source
[22] = system: OATA L57C/W58L/I261A; remark: listed apart in the source
[23] = system: W58A mutant
[24] = system: OATA W58A, OATA W58M, OATA W58V and OATA W58I mutants
[25] = system: OATA W58L; remark: listed apart in the source

SMILES	Relative reactivity, OATA W58A [2] [%]	Relative reactivity, OATA W58L [3] [%]	Relative activity, OATA L57A/W58A [4] [%]	Relative activity, OATA L57A/W58A/V154A [5]	Fold-increase in kcat/KM [7]	fold decrease in KM (tighter binding) [7]	Relative activity, OATA L57Q/W58N/I261L [8] [%]	Relative activity, OATA L57C/W58L/I261A [9] [%]	Relative activity to acetophenone, OATA W58A [11] [%]	Relative activity to acetophenone, OATA W58V [12] [%]	Relative activity to acetophenone, OATA W58I [13] [%]	Relative activity to acetophenone, OATA W58L [14]	Relative activity to acetophenone, OATA W58M [15] [%]	Relative activity, OATA L57A [16] [%]	other results
O=C1CCCc2ccccc21 [Ketone 1h]															Fold-increase [1]: >210
CCC[C@H](N)c1ccccc1 [(S)-α-propylbenzylamine]	10	2	240	749%											relative activity to (S)-α-MBA measured with OATA WT, OATA W58A [6]: 20%
CC(C)N [Isopropylamine]	28	72			8.6	8.9	23	8							
NCc1ccccc1 [Benzylamine]	50	49					123	792							Relative activity, OATA W58D/I261A [10]: 17%
C[C@H](N)c1ccccc1 [(S)-α-methylbenzylamine]	100	100	621	1,190%^	170	207	262	900							Relative activity, OATA W58D/I261A [10]: 17%
O=C1CCc2ccccc21 [Ketone 1g]															Fold-increase [1]: >760
CC(=O)c1ccccc1 [Ketone 1a, acetophenone]					340	6.1			100	100	100	100%	100	89	Relative activity, OATA W58A [17]: 1,206%^; Relative activity, OATA L57A/W58A [18]: 716%; Relative activity, OATA L57A/W58A/V154A [19]: 637%; Relative activity, OATA W58D/I261A [20]: 648%; Relative activity, OATA L57Q/W58N/I261L [21]: 2,500%; Relative activity, OATA L57C/W58L/I261A [22]: 12,174%; fold increase in turnover number (kcat) [7]: 55.7; kcat relative to kcat of the wild-type enzyme for pyruvate [7]: up to 20%; fold increase in activity [23]: 41; fold increase in reactivity as compared to OATA WT [24]: more than 40
CCCC(=O)c1ccccc1 [Ketone 1c, butyrophenone]									8	12	11	>0.1%^	15	1	Relative activity, OATA W58A [17]: 8%; Relative activity, OATA L57A/W58A [18]: 302%; fold increase in amination activity compared to OATA W58A [18]: > 30 and 38; Relative activity, OATA L57A/W58A/V154A [19]: 747%
CC(=O)CCc1ccccc1 [Ketone 1f, benzylacetone]									219	193	125	277%	178	439	Relative activity, OATA L57C/W58L/I261A [22]: 6,330%; Conversion (%) OATAW58L [25]: 93%; Conversion, preparative scale [25]: 92%
CC(C)C(N)c1ccccc1 (racemic) [2-Methyl-1-phenylpropan-1-amine]	3	2	12	167%											relative activity to (S)-α-MBA measured with OATA WT, OATA W58A [6]: 6%
